Measured values reported in patent US20160258951A1, “METHODS OF MONITORING IMMUNE RESPONSES” (THE HENRY M. JACKSON FOUNDATION FOR THE ADVANCEMENT OF …, priority 2013, published 2016).
“And” between values parts separate entries of the source, which are not always exact repeats. Identical values can stand only once.

Tests used:
[1] = system: patients with HER2/neu+ breast cancer; settings: clinical vaccines in HER2/neu+ breast cancer; cited from earlier work
[2] = system: CD8 T lymphocytes; test: HLA-A2:Ig dimer staining with control peptide-loaded dimers; type: cell-based, human; settings: almost 2000 peripheral blood samples from about 200-300 patients

Row | background binding value of negative control dimers [2] | Substance | safety and stimulation of antigen-specific immunity [1]
1 |  | IISAVVGIL [GP2] | safe and effective in stimulating antigen-specific immunity
2 | 03% and 0.25-0.34% | NH2-RIAWARTEL-COOH (H-RIAWARTEL-OH) [E37] | 
